Reference: patent publication US6475724B1, “Nucleic acids, kits, and methods for the diagnosis, prognosis and treatment of glaucoma and related disorders” (The Regents of the University of California, priority 1997, dated 2002)
Entries after “also recorded” stand apart in the source; their conditions may differ.

Experiments:
TIGR gene = assay: Induction of the TIGR gene by stress stimulants; type: cell-based
[1] = IOP response to topical dexamethasone eye drops, Armaly criteria; type: in vivo, human; settings: topical dexamethasone eye drops (0.1%) four times a day for four weeks; one line per subject (subjects 1-7); pre- vs post-treatment IOP
Protocol: Subjects are given standard topical dexamethasone eye drops (0.1%) four times a day, for four weeks. Pre-treatment and post-treatment IOP readings are taken and patients are classified as having high (>16 mmHg), intermediate (6-16 mmHg) or low (<6 mmHg) IOP responses under the “Armaly” criteria. DNA samples are obtained from four subjects having high or intermediate IOP changes. Samples from several non-responder patients were also taken. The DNA samples were analyzed for the presence of the TIGRmt11 variant sequence, as discussed above.

HTM cells = assay: TIGR 5′ region/promoter AP reporter activity in HTM cells; type: cell-based, human; settings: attached reporter gene
Protocol: The 283 base 5′ fragment of the TIGR 5′ region (SEQ ID NO: 37) is amplified from genomic DNA of a normal human subject as discusssed in Example 3. The DNA is cloned into a pSEAP vector (Clontech, Calif.) so that transcription was under the control of the TIGR sequences. More specifically, pSEAP2-enhancer vector is digested with Srfl to produce a blunt end. The 283 bp fragment is blunt end ligated to the vector using T4 ligase for 2 hours. The vector is transfected into DH5 cells to establish a plasmid clone, TMRE-1/pSEAP. PCR sequencing is used to verify the clone sequence as correct. Similarly, the equivalent genomic fragment amplified from a steroid responder sample, identified as mutant TIGR.mt11, is cloned in pSEAP2-enhancer and called clone TIGR.mt11/pSEAP.
HTM cells, Cos cells (COS-7), and HeLa cells (HeLa 229) are seeded at 10^6 cells per well and incubated with 1 ug of the plasmid DNA to transfect using Lipofectin reagent (GIBCO, Life Technologies, Md.). Some samples of cells were also treated with dexamethasone (DEX). Then, 24, 48, and 72 hours after transfection, AP activity was measured. Cells are collected using a buffer containing L-homoarginine and the chemiluminescent substrate CSPD and a chemiluminescent enhancer added to the samples. The expression levels are then recorded using a luminometer or by brief exposure to X-ray film. […]

Row | Molecule | induction of TIGR gene (TIGR gene) | further results
1 | OO [H2O2] | induced | 
2 | CCCCCCCCCCCCCC(=O)O[C@@H]1[C@@H](C)[C@@]2(O)[C@@H](C=C(CO)C[C@]3(O)C(=O)C(C)=C[C@@H]23)[C@H]2C(C)(C)[C@]12OC(C)=O [TPA, 12-O-tetradecanolyphorbol-13-acetate] | induced | 
3 | C[C@@H]1C[C@H]2[C@@H]3CCC4=CC(=O)C=C[C@]4(C)[C@@]3(F)[C@@H](O)C[C@]2(C)[C@@]1(O)C(=O)CO [dexamethasone] |  | CS-IOP Response [1]: Low (low (<6 mmHg)); also recorded: Intermediate (intermediate (6-16 mmHg)); also recorded: High (high (>16 mmHg))
4 | SEQ ID NO: 37: 283 bp region from 5340 to 5044 of SEQ ID NO: 3, TIGR 5′ regulatory region (nucleic acid, listed as Homo sapiens) DNA: AACTATTATTGGGGTATGGGTGCATAAATTGGGATGTTCTTTTTAAAAAGAAACTCCAAACAGACTTCTGGAAGGTTATTTTCTAAGAATCTTGCTGGCAGCGTGAAGGCAACCCCCCTGTGCACAGCCCCACCCAGCCTCACGTGGCCACCTCTGTCTTCCCCCATGAAGGGCTGGCTCCCCAGTATATATAAACCTCTCTGGAGCTCGGGCATGAGCCAGCAAGGCCACCCATCCAGGCACCTCTCAGCACAGCAGAGCTTTCCAGAGGAAGCCTCACCAA |  | expression of AP activity, HTM cells compared with HeLa or Cos cells (HTM cells): much higher
